Assay [1] has as its system hES cells. In words: hES cells cultured in AI medium with inhibitors of FGF receptors, MEK/ERK or Activin/Nodal (TGFβ) signaling. The class given is cell-based, human. The note with it: for morphology / survival of hES cells in AI medium with inhibitor: 100 nM PD173074, 1 μM PD0325901 or 10 μM SB-431542, vs DMSO control; for morphology / survival of hES cells in AI medium with inhibitor / expression of pluripotency proteins OCT4 and NANOG (immunofluorescence): 72 hours; for expression of pluripotency proteins OCT4 and NANOG (immunofluorescence): 100 nM PD173074 or 1 μM PD0325901. The protocol:
For culture in AI media, cells were maintained on plates coated with 0.5 μg/cm^2 Laminin-511 (Biolamina, Takara), and generally passaged with ReLeSR, similar to cells in mTeSR™1 on Laminin. Early passage newly-derived hES cells in AI medium were passaged by manual picking. Cells in AI media were also split using various dissociation reagents, as indicated in the Examples. For Accutase or AccuMax (StemCell Technologies), the dissociation reagent was added to wells for 5-10 minutes, the well contents were collected and pelleted, and the dissociation reagent removed. Cells were then resuspended in AI media with or without […] ROCK inhibitor for plating. For Gentle Cell Dissociation Reagent (StemCell Technologies), the reagent was added to wells for 6 minutes, then aspirated and AI medium added. Well contents were collected and disaggregated with a 5 ml stripette. For 0.5 mM EDTA (Sigma), the reagent was added for 5 minutes, then aspirated, and AI medium added and cells disaggregated. For salt-free PBS (Gibco, Life Technologies), the reagent was added for 6 minutes, aspirated, then AI medium added and cells disaggregated.
For inhibitor treatment experiments, cell culture media was supplemented with 100 nM PD173074 (FGF receptor inhibitor), 1 μM PD0325901 (MEK inhibitor) or 10 μM SB-431542 (Activin/Nodal receptor inhibitor) as indicated in the Examples. Cells were exposed to inhibitors for 72 hours.
On the day of fixation, medium was removed from pluripotent cell lines or differentiated cells and the cells were washed with Dulbeco's Phosphate-Buffer saline (PBS) without calcium and magnesium (Thermo Fisher Scientific). Cells were fixed with 4% (w/v) paraformaldehyde (PFA) (ThermoFisher Scientific) for 1 h and permeabilised with 0.5% (w/v) Triton X-100 or 0.5% (v/v) Tween-20 (Sigma Aldrich). Non-specific binding was minimised using 2-10% (v/v) donkey serum (AbCam) in PBS (containing 0.05% (v/v) Tween-20 or 0.01% Tween-20). The following primary antibodies were used (all at 1:500 dilution unless otherwise indicated): anti-NANOG (AF1997 R&D Systems; REC-RCAB0001P, 2B Scientific; 4903P, Cell Signaling Technologies or ab21624, Abcam), anti-SOX17 (AF1924, R&D Systems), anti-TRA-1-81 (MAB4381, Millipore; or 560072, BD Biosciences), anti-TUJ1 (T2200, Sigma), anti-FOXA2 (3143, Cell Signaling), anti-OCT4 (sc-5279, Santa Cruz or 2750S, Cell Signaling Technologies), anti-SSEA4 (MA1-021, Life Technologies or MC-813-70, DSHB, 1:100), anti-TRA-1-60 (MAB4360, Millipore, 1:100), anti-CXCR4 (MAB173, R&D), anti-Desmin (RB-9014-R7, Neomarkers, 1:50), anti-AFP (A0008, Dako), anti-cytokeratin-18 (ab668, Abcam). Primary antibody was removed by washing with PBS (containing 0.05% or 0.01% v/v Tween-20). Secondary antibodies (Alexa Fluor® 488, Alexa Fluor® 594, Alexa Fluor® 555 donkey anti-rabbit, mouse or goat, Molecular Probes) were diluted in blocking solution at a 1:300 concentration and added to the corresponding wells for 1 hour at room temperature. Cells were the washed several times in of 0.1% (v/v) Tween-20 and placed in a last wash for 30 minutes. A drop of Vectashield containing DAPI (Vector Labs) was added to each well prior to imaging.

Assay [2] deals with human embryos. In words: Human embryo culture with growth factor treatment, immunofluorescence and automated quantification. The class given is cell-based. The protocol:
Human embryos were donated to the research project by informed consent under the UK Human Fertilisation and […] Licence number R0162. Vitrified embryos frozen in straws were thawed by quickly transferring the contents of the straw from liquid nitrogen directly into thaw solution (Irvine Scientific Vitrification Thaw Kit) and thawed as per manufacturer's instructions. Embryos frozen in cryopets were first thawed for 3 seconds in a 37° C. waterbath before transferring into thaw solution (Irvine Scientific Vitrification Thaw Kit). Embryos frozen in glass ampoules were thawed completely in a 37° C. waterbath after the top of the vial was removed under liquid nitrogen. The contents were emptied onto a petri dish and the embryo transferred through a gradient of sucrose solutions (Quinn's Advantage Thaw Kit, Origio) as per manufacturer's instructions.
Embryos were routinely cultured in Global Media (LifeGlobal) supplemented with 5 mg/mL LifeGlobal Protein Supplement pre-equilibrated in an incubator at 37° C. and 5% CO2. For growth factor or inhibitor treatment, these conditions were further supplemented with FGF2 (3718-FB-01M, R&D) or IGF1 (291-G1-10, R&D) as indicated.
Embryos were fixed with 4% (w/v) paraformaldehyde (PFA) (ThermoFisher Scientific) for 1 h at 4° C. on a rotating shaker and analysed as described previously (Niakan and Eggan, Developmental Biology, 2013: doi: 10.1016/j.ydbio.2012.12.008). Briefly, embryos were then transferred through several washes of 0.1% (v/v) Tween-20 (Sigma Aldrich) diluted in Dulbeco's Phosphate-Buffer saline (PBS) without calcium and magnesium (Thermo Fisher Scientific) to remove residual paraformaldehyde. Embryos were placed for 20 minutes in 0.5% (v/v) Tween-20 for permeabilization. Embryos were blocked for 1 hour at room temperature in blocking solution (10% donkey serum diluted in 0.1% (v/v) Tween-20). Embryos were placed in primary antibodies at a concentration of 1:500 in blocking solution overnight at 4° C. on a rotating shaker. The following primary antibodies were used (all at 1:500 dilution): anti-NANOG (AF1997 R&D Systems, REC-RCAB0001P 2B Scientific, or ab21624, Abcam), anti-GATA6 (SC-9055, Santa Cruz) and anti-SOX17 (AF1924, R & D Systems). The following day, embryos were transferred through 4 washes of 0.1% (v/v) Tween-20 then placed in a last wash for 30 minutes. Secondary antibodies (Cy3, FITC or Cy5 donkey anti-rabbit, mouse or goat, Molecular Probes) were diluted in blocking solution at a 1:300 concentration. Embryos were placed in secondary antibody for 1 hour at room temperature on a rotating shaker, transferred through 4 washes of 0.1% (v/v) Tween-20 and placed in a last wash for 30 minutes. Embryos were placed in a 50 μL 1:3 dilution of Vectashield containing DAPI (Vector Labs): 0.1% (v/v) Tween-20 on a coverslip bottom dish (MatTek) for confocal imaging.
Embryos were imaged on a Leica SP5 inverted confocal microscope (Leica Microsystems GmbH) at a z-section thickness of 3 μm or 2 μm for human or mouse embryos respectively. MINS 1.3 software was used to detect and segment nuclei and thus determine the number of cells in each embryo (http://katlab-tools.org/) (Lou et al., Stem Cell Reports 2014, doi: 10.1016/j.stemcr.2014.01.010). Confocal stacks in .tif format were loaded into the MINS pipeline for automated nuclear segmentation.
The MINS segmentation output was manually checked for appropriate segmentation and mitotic nuclei were removed from the analysis. Data were subsequently plotted using GraphPad Prism version 6 (GraphPad Software, La Jolla, Calif.).

Assay [3] deals with H9 cells. In words: Test of laminin variants as basement membrane substrate for H9 cells in mTeSR1. Particulars: 0.5 μg/cm^2 coating, mTeSR1 media, 3 days, vs Matrigel. The class given is cell-based, human. The text has this:
We therefore interrogated the transcriptome data set to identify chemically defined and physiologically relevant substrates for the derivation of hES and iPS cells. We also interrogated the transcriptome data set and identified expression of transcripts for laminin-binding Integrin α6 and Integrin-β1 (ITGA6, ITGB1) in the human blastocyst, as shown in FIG. 3A. […] Consequently, recombinant human Laminin-511 (Biolamina) or a recombinant Laminin-511 E8 fragment (iMatrix-511, Takara) were selected as basement membrane substrates to culture hES cells, in order to recapitulate the niche within the blastocyst. To test the laminin variants, H9 cells in mTeSR™1 media were passaged onto plates coated with 0.5 μg/cm^2 of either iMatrix-511 (Takara) or LN-511 (Biolamina), as well as a control Matrigel plate, and cultured for 3 days.
For culture in mTeSR™1 media (StemCell Technologies), cells were generally maintained on Matrigel-coated (BD Biosciences) tissue culture plates. Matrigel coating was performed for one hour at room temperature (RT) as per the manufacturer's instructions Cells were passaged as clumps using ReLeSR (Stemcell Technologies). ReLeSR was added to wells for 30 seconds at RT then aspirated, then plates were incubated for 5 minutes at 37° C., quenched with mTeSR™1 and lightly tapped to dislodge clumps of the desired size. […]

Take `CCN(CC)CCCCNc1ncc2cc(-c3cc(OC)cc(OC)c3)c(NC(=O)NC(C)(C)C)nc2n1` [FGF receptor inhibitor, PD173074]: in assay [1], the “morphology / survival of hES cells in AI medium with inhibitor” value (from here on “morphology / survival … with inhibitor”) was “retained the morphology of pluripotent cells”; the “expression of pluripotency proteins OCT4 and NANOG (immunofluorescence)” value is reported as “retained the expression”.
`O=C(NOC[C@H](O)CO)c1ccc(F)c(F)c1Nc1ccc(I)cc1F` [MEK/ERK inhibitor, PD0325901]: in assay [1], the “morphology / survival … with inhibitor” value is “retained the morphology of pluripotent cells”; the “expression of pluripotency proteins OCT4 and NANOG (immunofluorescence)” value is listed as “retained the expression”.
As to `NC(=O)c1ccc(-c2nc(-c3ccc4c(c3)OCO4)c(-c3ccccn3)[nH]2)cc1` [TGFβ inhibitor, SB-431542], in assay [1], the “morphology / survival … with inhibitor” value was “underwent apoptosis”. Besides, the “NANOG expression in remaining colonies (immunofluorescence)” value in assay [1] (10 μM SB-431542, 3 days) is “undetectable in the majority of cells”.
For FGF2, the “GATA6 (extraembryonic marker) expression” value in assay [2] (100 ng/ml FGF2 from E2.5) and in assay [2] (1 μg/ml FGF2 from E2.5) was “still expressed” each time. Besides, the “NANOG expression compared to untreated controls (immunofluorescence)” value in assay [2] (100 ng/ml FGF2 from E2.5, analysed at E6-7) is “loss of NANOG expression”; in assay [2] (1 μg/ml FGF2 from E2.5, analysed at E6-7), “loss of NANOG expression”. Besides, the NANOG expression entry in assay [2] (100 ng/ml FGF2 from E5 to E6-7) is on record as “remained expressed”. Moreover, the “SOX17 (extraembryonic marker) expression” value in assay [2] (100 ng/ml FGF2 from E5 to E6-7) was “remained expressed”.
On to IGF1, for which the “increase in the proportion of NANOG expressing cells compared to control embryos” value in assay [2] (17 nM IGF1 from E2.5, analysed at E6-7, p-value<0.05) worked out at 2 fold. For the same compound, in assay [2] (human embryos treated with IGF1), the “KLF17 (epiblast marker) expression” value is on record as “expressed in a higher proportion of cells”.
Take “Laminin-511: recombinant human Laminin-511 (Biolamina)”: the “pluripotency morphology of H9 cells on substrate” value in assay [3] is given as “equivalent to Matrigel coating”.

The values above are taken from US20190330597A1, “COMPOSITION FOR CULTURE OF PLURIPOTENT STEM CELLS” (The Francis Crick Institute Limited, priority 2017, published 2019).
